Results taken from ChEMBL document CHEMBL1132316 (J Med Chem, 1999).

Columns and labels:
Type in all cases: functional
Conditions in all cases: ip
Mus musculus [1] = assay: Protective effect against mortality induced by hypobaric hypoxia in mice by intraperitoneal (i.p.) administration.
Rattus norvegicus = assay: Tested for the protection against glutamic acid-evoked convulsions in rats by intraperitoneal administration
Mus musculus [2] = assay: Protective effect against mortality induced by hypobaric hypoxia in mice by intraperitoneal (i.p.) administration; Range 2.5-10

Row | SMILES | ED50 (Mus musculus [1]) [mg/kg] | ED50 (Rattus norvegicus) [mg/kg] | ED50 (Mus musculus [2]) [mg/kg]
1 | N=c1sc2cc(OC(F)(F)F)ccc2n1CCN1CCN(c2ccccc2)CC1 | 5.5 | 3.5 | –
2 | Cn1c(=N)sc2cc(OC(F)(F)F)ccc21 | – | 5 | –
3 | CCSCCn1/c(=N/C)sc2cc(OC(F)(F)F)ccc21 | – | 3.7 | –
4 | CN(CCc1ccccc1)CCn1c(=N)sc2cc(OC(F)(F)F)ccc21 | – | 5 | –
5 | N=c1sc2cc(OC(F)(F)F)ccc2n1CCO | – | 8 | –
6 | N=c1sc2cc(OC(F)(F)F)ccc2n1CCc1ccccc1 | – | > 10 | –
7 | Nc1nc2ccc([N+](=O)[O-])cc2s1 | – | > 10 | –
8 | C[S+]([O-])CCCn1c(=N)sc2cc(OC(F)(F)F)ccc21 (configuration not stated) | – | 2.3 | –
9 | N=c1sc2cc(OC(F)(F)F)ccc2n1Cc1ccccc1 | – | > 10 | –
10 | N=c1sc2cc(OC(F)(F)F)ccc2n1CCCN1CCN(c2ccccc2)CC1 | > 10 | 10 | –
11 | Nc1nc2cccc(OC(F)(F)F)c2s1 | – | > 10 | –
12 | N#CCn1c(=N)sc2cc(OC(F)(F)F)ccc21 | – | 3.5 | –
13 | CCc1ccc2nc(N)sc2c1 | – | 7 | –
14 | Nc1nc2ccc(OC(F)(F)C(F)F)cc2s1 | – | 8.5 | –
15 | CCCSCCn1c(=N)sc2cc(OC(F)(F)F)ccc21 | – | 2.4 | –
16 | N=c1sc2cc(OC(F)(F)F)ccc2n1CC[S+]([O-])c1ccccc1 (configuration not stated) | – | 4.2 | –
17 | Nc1nc2ccc(OCC(F)(F)C(F)(F)F)cc2s1 | – | 7.5 | –
18 | CCCCc1ccc2c(c1)sc(=N)n2CC[S+]([O-])CC (configuration not stated) | – | > 10 | –
19 | CCC(C)(C)c1ccc2nc(N)sc2c1 | – | > 10 | –
20 | CN(CCn1c(=N)sc2cc(OC(F)(F)F)ccc21)Cc1ccccc1 | – | 7 | –
21 | Nc1ccc2nc(N)sc2c1 | – | > 10 | –
22 | CS(=O)(=O)CCn1c(=N)sc2cc(OC(F)(F)F)ccc21 | – | 1.8 | 2.5
23 | CN(C)S(=O)(=O)CCn1c(=N)sc2cc(OC(F)(F)F)ccc21 | – | > 10 | –

Row | SMILES | ED50 (Mus musculus [1]) [mg/kg] | ED50 (Rattus norvegicus) [mg/kg] | ED50 (Mus musculus [2]) [mg/kg]
24 | N=c1sc2cc(OC(F)(F)F)ccc2n1CCSc1ccccc1 | – | 4.5 | –
25 | C[S+]([O-])Cn1c(=N)sc2cc(OC(F)(F)F)ccc21 (configuration not stated) | – | 2.3 | –
26 | N#Cc1ccc2nc(N)sc2c1 | – | > 10 | –
27 | N=c1sc2cc(OC(F)(F)F)ccc2n1CCS | – | 2 | –
28 | C[S+]([O-])CCn1c(=N)sc2cc(OC(F)(F)F)ccc21 (configuration not stated) | 5.5 | 1.1 | –
29 | CC(C)(C)Oc1ccc2nc(N)sc2c1 | – | > 10 | –
30 | CCSCCn1/c(=N/O)sc2cc(OC(F)(F)F)ccc21 | – | > 10 | –
31 | CS(=O)(=O)c1ccc2nc(N)sc2c1 | – | > 10 | –
32 | CS(=O)(=O)CCCn1c(=N)sc2cc(OC(F)(F)F)ccc21 | – | 5 | –
33 | N=c1sc2cc(OC(F)(F)F)ccc2n1CCS(N)(=O)=O | – | 6 | –
34 | Nc1nc2c(OC(F)(F)F)cccc2s1 | – | > 10 | –
35 | Nc1nc2ccc(C(F)(F)F)cc2s1 | – | 2.5 | –
36 | N=c1sc2cc(OC(F)(F)F)ccc2n1CC(=O)O | – | > 10 | –
37 | COC(=O)Cn1c(=N)sc2cc(OC(F)(F)F)ccc21 | – | > 10 | –
38 | Nc1nc2cc(OC(F)(F)F)ccc2s1 | – | > 10 | –
39 | CSCCn1c(=N)sc2cc(OC(F)(F)F)ccc21 | 14 | 1 | –
40 | N=c1sc2cc(OC(F)(F)F)ccc2n1CC(N)=O | – | 7 | –
41 | CN(C)CCn1c(=N)sc2cc(OC(F)(F)F)ccc21 | 4 | 2.3 | –
42 | CCCc1ccc2nc(N)sc2c1 | – | 6 | –
43 | CSCCn1/c(=N/C(C)=O)sc2cc(OC(F)(F)F)ccc21 | – | > 10 | –
44 | CCCCCc1ccc2nc(N)sc2c1 | – | 7.5 | –
45 | CCCCc1ccc2nc(N)sc2c1 | – | 4 | –
46 | CC[S+]([O-])CCn1c(=N)sc2cc(OC(F)(F)F)ccc21 (configuration not stated) | – | 1.2 | –

Row | SMILES | ED50 (Mus musculus [1]) [mg/kg] | ED50 (Rattus norvegicus) [mg/kg] | ED50 (Mus musculus [2]) [mg/kg]
47 | CSCCCn1c(=N)sc2cc(OC(F)(F)F)ccc21 | – | 4.2 | –
48 | CNCCn1c(=N)sc2cc(OC(F)(F)F)ccc21 | – | > 10 | –
49 | CC(C)(C)Cc1ccc2nc(N)sc2c1 | – | > 10 | –
50 | Nc1nc2ccc(C3CCCCC3)cc2s1 | – | > 10 | –
51 | N=c1sc2cc(OC(F)(F)F)ccc2n1CCN1CCCCC1 | < 5 | 2 | –
52 | N=c1sc2cc(OC(F)(F)F)ccc2n1CCN1CC=C(c2ccccc2)CC1 | – | 2.2 | 2.5
53 | CCSCCn1c(=N)sc2cc(OC(F)(F)F)ccc21 | – | 2.2 | –
54 | CCCCn1c(=N)sc2cc(OC(F)(F)F)ccc21 | – | 10 | –
55 | Nc1nc2ccc(SC(F)(F)F)cc2s1 | – | 8 | –
56 | Nc1nc2ccc(OC(F)(F)C(F)(F)F)cc2s1 | – | 2.5 | –
57 | Nc1nc2ccc(I)cc2s1 | – | > 10 | –
58 | CCS(=O)(=O)CCn1c(=N)sc2cc(OC(F)(F)C(F)(F)F)ccc21 | – | 2.6 | –
59 | CCCn1c(=N)sc2cc(OC(F)(F)F)ccc21 | – | 4.5 | –
60 | CCn1c(=N)sc2cc(OC(F)(F)F)ccc21 | – | 5 | –
61 | CC[S+]([O-])CCn1c(=N)sc2cc(C(F)(F)F)ccc21 (configuration not stated) | – | 1.7 | –
62 | CCOC(=O)c1ccc2nc(N)sc2c1 | – | > 10 | –
63 | Nc1nc2ccc(CC(F)(F)F)cc2s1 | – | 8 | –
64 | C=CCn1c(=N)sc2cc(OC(F)(F)F)ccc21 | – | 7 | –
65 | Nc1nc2ccc(C(F)(F)C(F)(F)F)cc2s1 | – | 2.5 | –
66 | C[Si](C)(C)c1ccc2nc(N)sc2c1 | – | 5 | –
67 | CC[S+]([O-])CCn1c(=N)sc2cc(C(C)(C)C)ccc21 (configuration not stated) | – | > 10 | –
68 | CCSCCn1/c(=N/OC)sc2cc(OC(F)(F)F)ccc21 | – | > 10 | –
69 | N=c1sc2cc(OC(F)(F)F)ccc2n1CCN1CCC(c2ccccc2)CC1 | – | 3 | 2.5

Row | SMILES | ED50 (Mus musculus [1]) [mg/kg] | ED50 (Rattus norvegicus) [mg/kg] | ED50 (Mus musculus [2]) [mg/kg]
70 | CN(C)CCn1c(=N)sc2cc(C(C)(C)C)ccc21 | – | > 10 | –
71 | CNS(=O)(=O)CCn1c(=N)sc2cc(OC(F)(F)F)ccc21 | – | 4 | –
72 | Nc1nc2ccc(-c3ccccc3)cc2s1 | – | > 10 | –
73 | CSCCn1c(=O)sc2cc(OC(F)(F)F)ccc21 | – | > 10 | –
74 | CC(C)c1ccc2nc(N)sc2c1 | – | > 10 | –
75 | CSCn1c(=N)sc2cc(OC(F)(F)F)ccc21 | – | 3 | –
76 | Nc1nc2ccc(OCC(F)(F)F)cc2s1 | – | 6.5 | –
77 | CCCCCCc1ccc2nc(N)sc2c1 | – | 7 | –
78 | Nc1nc2ccc(OC(F)F)cc2s1 | – | 7.5 | –
79 | C#CCn1c(=N)sc2cc(OC(F)(F)F)ccc21 | – | 4 | –
80 | Nc1nc2ccc(C(=O)C(F)(F)F)cc2s1 | – | > 10 | –
81 | CCCCCCCc1ccc2nc(N)sc2c1 | – | > 10 | –
82 | CCN(CC)C(=O)Cn1c(=N)sc2cc(OC(F)(F)F)ccc21 | – | 9 | –
83 | N=c1sc2cc(OC(F)(F)F)ccc2n1CCS(=O)(=O)O | – | > 10 | –
84 | COc1ccc2nc(N)sc2c1 | – | > 10 | –
85 | CN(C)CCn1c(=N)sc2ccccc21 | – | > 10 | –
86 | CC(C)(C)c1ccc2nc(N)sc2c1 | – | 4 | –
87 | Nc1nc2ccc(Br)cc2s1 | – | > 10 | –
88 | CC/N=c1\sc2cc(OC(F)(F)F)ccc2n1CCSC | – | 8.5 | –
89 | CN(C)CCCn1c(=N)sc2cc(OC(F)(F)F)ccc21 | – | 9 | –
90 | CCS(=O)(=O)CCn1c(=N)sc2cc(C(F)(F)C(F)(F)F)ccc21 | – | 2.1 | –
91 | C[C@]12N[C@H](Cc3ccccc31)c1ccccc12 (racemic) [DIZOCILPINE] | – | 2.2 | –
92 | Nc1nc2ccc(OC(F)(F)F)cc2s1 [RILUZOLE] | 4 | 3.2 | –
